This note sets out measurements from patent US7378425B2, “(1-Indanone)-(1,2,3,6-tetrahydropyridine) compounds” (Eisai R & D Management Co., Ltd., priority 2002, dated 2008).

Structures are written as SMILES. Where a name gives a salt, the structure may show the parent alone. Read-outs that look alike come from different tables or passages of the source.

By IC50 is commonly meant the concentration at which inhibition is half-maximal.

In assay [1] the target is sigma receptor (guinea pig brain crude membrane fraction). Briefly: Sigma receptor binding assay (3H-DTG). The settings on record: inhibition of 3H-DTG binding to guinea pig brain crude membrane fraction, 25° C., 1 hour. As to the method:
Sigma Receptor Binding Assay
(1) Preparation of Receptor
The washing procedure was repeated once more under the same conditions, and the resulting crude membrane fraction was subjected to the assay.
The specific binding and the non-specific binding in the absence of the test compound were determined in the same way as above except for using 50% DMSO solution instead of the test compound and using a 100 μM Haloperidol solution instead of the test compound, respectively.
(3) Determination of Inhibition
The inhibitions of the test compound at individual concentrations were determined from the ratio of the specific binding in the presence of the test compound to the specific binding in the absence thereof. The dose-response curve was regressed according to a logit-log model in which the ratio of the specific binding in the presence of the test compound to the specific binding in the absence thereof was subjected to logit transformation and plotted against the common logarithm value of each concentration.

Assay [2] concerns the target T1, acetylcholinesterase (rat brain homogenate) (Rattus norvegicus, UniProt P37136).
T1 construct: Using a rat brain homogenate as a source of acetylcholinesterase; from tissue; host or cells: rat brain homogenate
T1 sequence (P37136 32-614): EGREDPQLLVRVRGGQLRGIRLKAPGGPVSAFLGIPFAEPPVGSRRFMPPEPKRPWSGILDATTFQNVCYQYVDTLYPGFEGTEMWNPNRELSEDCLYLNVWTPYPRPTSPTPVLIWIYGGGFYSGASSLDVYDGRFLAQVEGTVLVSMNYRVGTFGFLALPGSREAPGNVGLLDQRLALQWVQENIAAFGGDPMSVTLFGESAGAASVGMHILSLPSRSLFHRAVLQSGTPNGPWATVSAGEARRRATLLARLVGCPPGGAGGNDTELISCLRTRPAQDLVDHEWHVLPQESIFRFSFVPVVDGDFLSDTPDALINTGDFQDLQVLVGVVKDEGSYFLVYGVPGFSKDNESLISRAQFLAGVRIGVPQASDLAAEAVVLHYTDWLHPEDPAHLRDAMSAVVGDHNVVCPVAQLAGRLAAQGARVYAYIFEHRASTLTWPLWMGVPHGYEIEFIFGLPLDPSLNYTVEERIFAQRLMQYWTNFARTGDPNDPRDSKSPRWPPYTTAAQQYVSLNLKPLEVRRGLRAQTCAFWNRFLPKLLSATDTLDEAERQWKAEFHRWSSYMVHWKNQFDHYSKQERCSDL
Briefly: biochemical. As to the method: Inhibitory Effect on Acetylcholinesterase
To DTNB (5,5′-dithiobis(2-nitrobenzoic acid)), acethylthiocholine (as a substrate) and a test compound was added the rat brain homogenate and incubated.

On to `CCOc1cc2c(cc1OCC)C(=O)C(F)(CC1=CCN(Cc3ccccc3)CC1)C2` (stereo not shown) [Example 3, 1-benzyl-4-[(5,6-diethoxy-2-fluoro-1-indanon)-2-yl]methyl-1,2,3,6-tetrahydropyridine hydrochloride], for which the IC50 in assay [1] came out at 4.7 nM; in assay [2] (rat brain homogenate, acetylthiocholine substrate, DTNB, absorbance at 412 nm, read-out: Acetylcholinesterase inhibition IC50) it was 0.4 nM.
`COc1cc2c(cc1OC)C(=O)C(CC1=CCN(Cc3ccccc3)CC1)C2` (stereo not shown) [Example 1, 1-benzyl-4-[(5,6-dimethoxy-1-indanon)-2-yl]methyl-1,2,3,6-tetrahydropyridine hydrochloride] came in with an IC50 in assay [2] of 4.2 nM.
In turn, `CCOc1cc2c(cc1OCC)C(=O)C(CC1=CCN(Cc3ccccc3)CC1)C2` (stereo not shown) [Example 2, 1-benzyl-4-[(5,6-diethoxy-1-indanon)-2-yl]methyl-1,2,3,6-tetrahydropyridine hydrochloride] registered a 50% inhibitory concentration (IC50) in assay [1] of 5 nM.
